Test results taken from patent US20040171824A1, “A Lac operator-repressor system” (priority 2001, published 2004).

Legend:
[1] = system: tyrosinase expression in Tyr^lacO, LacI double transgenic mice; test: IPTG derepression of tyrosinase expression (pigmentation) in Tyr^lacO, LacI double transgenic mice; assay type: in vivo, mouse
Description: The lac operator-repressor system of the present invention was tested in mice using a regulatable version of a well-characterized visible marker gene, tyrosinase. Tyrosinase is the protein product of the albino (c) locus (Kwon et al., PNAS 84, 7473-7477 (1987)), and is the enzyme that catalyzes the first step in melanin biosynthesis. The target transgene consists of the wildtype murine tyrosinase cDNA under the control of the murine tyrosinase promoter modified to contain lac operator sequences (See FIG. 2). The major transcription start site in the tyrosinase promoter is 83 bp upstream of the start codon. To maintain the endogenous spacing of promoter elements in the critical region between the start of transcription and the start of translation, a PCR-based, site-directed mutagenesis was used to change 25 bp of the endogenous sequence to create a primary lac operator centered at 59 bp upstream of the start of translation. Additional operators were inserted 176 bp and 526 bp upstream of the primary operator (FIG. 2). Mice containing this modified Tyrosinase transgene resemble pigmented animals previously described (Methot et al., nucleic Acids Research, 23, 4551-4556 (1995)) that had been microinjected with an unregulatable version of the same transgene. Two lines of pigmented Tyrosinase transgenic mice were established containing the regulatable transgene. […]

[2] = Tolerability of IPTG in the drinking water of Tyr^lacO, LacI double-transgenic mice; assay type: in vivo, mouse
Description: Tyrosinase activity was derepressed by replacing the drinking water with a 10 mM solution of IPTG (changed every four days). To allow for the normal pattern of tyrosinase expression during development, the female was started on 10 mM IPTG at day 7 of pregnancy.

[3] = system: tyrosinase expression in Tyr^lacO, LacI double transgenic embryos and pups; test: Transplacental IPTG regulation and reversibility of pigmentation in embryonic and newborn double transgenic mice; assay type: in vivo, mouse
Excerpt: To determine if lac elements could regulate pigmentation during embryogenesis and if IPTG could act transplacentally, the pigmentation in the developing retinal pigment epithelium of embryonic and newborn mice was investigated. At E9, tyrosinase activity in the embryonic eye of wild type mice begins to deposit pigment in the developing retinal pigment epithelium. At E12.5, the mouse RPE clearly is pigmented. Tyr^lacO (43) transgenic mice recapitulate this developmental event. A distinct band of pigmentation surrounding the central lens is seen in the Tyrosinase transgenic embryo that is not seen in the nontransgenic albino.
Finally, the reversibility of the system was tested by switching the Tyrosinase transgene on after it had been off, or off after it had been on, in the same animal. The phenotypes of eyes of newborn mice were compared to the phenotypes of embryonic eyes of mice of the same genotype. […] However, at E12.5, this double transgenic pup has the albino phenotype. […] Reversibility was also observed with regards to switching off the tyrosinase gene after it had intially been on. […] As expected, the eyes remain pigmented due to the low turnover of cells and melanosomes in the RPE.
For embryonic eyes, pregnant females were euthanized at E12.5, and the embryos removed. The head of each embryo was fixed in 2% paraformaldehyde in 0.1 M phosphate (pH 7.4), and the lower half was taken for genotyping. Tyrosinase activity was derepressed by replacing the drinking water with a 10 mM solution of IPTG (changed every four days). To allow for the normal pattern of tyrosinase expression during development, the female was started on 10 mM IPTG at day 7 of pregnancy.

[4] = system: mouse L-cells stably transfected with lacI expression vector; conditions: MSV-CAT reporter with lac operators; cited from earlier work
[5] = cited from earlier work

## CC(C)S[C@@H]1O[C@H](CO)[C@H](O)[C@H](O)[C@H]1O [IPTG, isopropyl-β-D-thiogalactoside]
[1]; double transgenic animal, 10 mM IPTG in the drinking water
  tyrosinase expression / coat phenotype: derepressed tyrosinase expression
[1]; double transgenic mouse treated with IPTG, eye sections
  pigmentation in the retinal pigment epithelium (RPE): restoration of pigmentation in the RPE to levels indistinguishable from the nonrepressed state
[2]; 10 mM IPTG in drinking water for up to 8 months
  deleterious effects on long-term administration: no deleterious effects
[2]; IPTG in the drinking water
  toxicity of the circulating level that derepresses target gene expression: completely nontoxic
[3]; double-transgenic embryo at E12.5, mother on 10 mM IPTG in drinking water during pregnancy
  pigmentation of the embryonic RPE: not when the mother was treated with IPTG during pregnancy
[3]; mother given IPTG in drinking water
  placental transfer: can cross the placenta
[3]; mother started on IPTG at E12.5 of pregnancy
  switching tyrosinase expression on after a period of silencing (eye pigmentation at birth): able to switch tyrosinase expression on
[3]; pup's mother taken off IPTG at P9
  coat phenotype after removal of IPTG: reversion of the coat phenotype to albino
[4]
  CAT activity: marked de-repression of CAT activity
[5]; adult animal, spleen, liver, lung, kidney, brain, adipose tissue
  tissue distribution: widespread
[5]; average
  nuclear uptake of inducer, of the total cell uptake: 18%
[5]; in vivo
  clearance from the blood: rapidly cleared from the blood
  metabolism in the animal: not metabolized
  relative concentration of inducer to repressor molecules versus that required for maximal induction in E. coli: ~1000 fold
  time functionally active after introduction into the bloodstream: at least 4 hours
[5]; uptake by facilitated transport into tissues of the animal
  time to reach high levels in cells of tissues: 2 to 4 h
